Laboratory results taken from patent publication US6514997B2, “Antipicornaviral compounds and compositions, their pharmaceutical uses, and materials for their synthesis” (Agouron Pharmaceuticals, Inc., priority 1999, dated 2003).
Where two headings read alike, the source gives them in different places.

Tests used:
[1] = test system: strains of human rhinovirus (HRV); test: Antirhinoviral H1-HeLa cell culture assay (XTT cell protection, EC50), other HRV strains; assay type: cell-based, human rhinovirus in H1-HeLa cells; conditions: read-out: EC50
Procedure, shortened: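 H1-HeLa cells infected, or mock-infected, were incubated with compounds for two days. Cell protection measured by XTT/PMS formazan absorbance at 450/650 nm; TI taken as CC50 divided by EC50.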

[2] = molecular target: T1, Recombinant rhinovirus 3C protease, serotype 14 (Human rhinovirus 14, UniProt P03303); test: Inhibition of rhinovirus 3C protease (FRET assay, kobs/[I]), serotype 14; assay type: biochemical; conditions: pH 7.6, read-out: kobs/[I] (3C protease inhibition activity)
T1 construct: Recombinant rhinovirus 3C proteases; made in house
T1 sequence (P03303 1538-1719): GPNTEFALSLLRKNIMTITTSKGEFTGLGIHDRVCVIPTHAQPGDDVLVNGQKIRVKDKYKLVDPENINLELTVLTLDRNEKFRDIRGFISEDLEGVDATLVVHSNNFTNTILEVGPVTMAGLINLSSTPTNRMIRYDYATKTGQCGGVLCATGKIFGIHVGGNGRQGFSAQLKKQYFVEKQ
Procedure, shortened: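 Enzyme-start FRET assay with ~1 μM DABCYL/EDANS peptide substrate and 50-100 nM recombinant protease in 50 mM tris pH 7.6, 1 mM EDTA, 2% DMSO. Cleavage followed as fluorescence increase; kobs/[I] derived from progress curves.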

[3] = test system: HRV-14; test: Antirhinoviral H1-HeLa cell culture assay (XTT cell protection, EC50), HRV-14; assay type: cell-based, human rhinovirus (HRV) serotype-14 in H1-HeLa cells; conditions: Rhinovirus B, HRV14, H1-HeLa
Procedure, shortened: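 H1-HeLa cells were infected with HRV-14 at m.o.i. 0.13, or mock-infected, and incubated with compound for two days. Cell protection was read by XTT/PMS formazan absorbance at 450/650 nm to give EC50. CC50 came from mock-infected cells, and TI = CC50/EC50.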

[4] = Cytotoxicity (CC50) in mock-infected H1-HeLa cells, XTT dye reduction; assay type: cell-based, human; conditions: human, H1-HeLa cells, mock-infected
Procedure, shortened: (§1)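 H1-HeLa cells mock-infected, read by XTT/PMS formazan at 450/650 nm.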

[5] = test system: H1-HeLa cells; test: as above; assay type: cell-based, human
Procedure, shortened: as §1

[6] = Human rhinovirus sp., HRV3, H1-HeLa, HRV-3
[7] = Human rhinovirus sp., HRV9, H1-HeLa, HRV-9
[8] = Human rhinovirus sp., HRV10, H1-HeLa, HRV-10
[9] = Human rhinovirus sp., HRV16, H1-HeLa, HRV-16
[10] = Human rhinovirus sp., HRV25, H1-HeLa, HRV-25
[11] = Human rhinovirus sp., HRV39, H1-HeLa, HRV-39
[12] = Human rhinovirus sp., HRV87, H1-HeLa, HRV-87
[13] = Human rhinovirus sp., H1-HeLa, HRV-Hanks
[14] = Human rhinovirus sp., HRV11, H1-HeLa, HRV-11
[15] = Human rhinovirus sp., HRV13, H1-HeLa, HRV-13
[16] = Human rhinovirus sp., HRV19, H1-HeLa, HRV-19
[17] = Human rhinovirus sp., HRV78, H1-HeLa, HRV-78

## CCOC(=O)/C=C/[C@H](C[C@@H]1CCNC1=O)NC(=O)[C@H](Cc1ccc(F)cc1)n1cccc(NC(=O)c2cc(C)on2)c1=O [Compound 25, trans-(2′S,3′″″S,4S)-4-(3′-(4″-Fluorophenyl)-2′-{3′″-[(5″″-methylisoxazole-3″″-carbonyl)amino]-2′-oxo-2′″H-pyridin-1′″-yl}propionylamino)-5-(2′″″-oxopyrrolidin-3′″″-yl)pent-2-enoic Acid Ethyl Ester]
[1]; H1-HeLa, HRV-1A
  EC50: 15 nM
[1]; H1-HeLa, HRV-2
  EC50: 4 nM
[1]; [6]
  EC50: 4 nM
[1]; [7]
  EC50: 10 nM
[1]; [8]
  EC50: 4 nM
[1]; [9]
  EC50: 5 nM
[1]; [10]
  EC50: 22 nM
[1]; [11]
  EC50: 9 nM
[1]; [12]
  EC50: 8 nM
[2]; HRV-14
  kinact/KI: 1.25e+06 M⁻¹ s⁻¹
[3]
  EC50: 2 nM
[4]; line of HRV-14
  CC50 at 2 days: > 10000 nM
[5]; line of HRV-1A
  CC50: > 10000 nM
[5]; line of HRV-2
  CC50: > 10000 nM
[5]; line of HRV-3
  CC50: > 10000 nM
[5]; line of HRV-9
  CC50: > 10000 nM
[5]; line of HRV-10
  CC50: > 10000 nM
[5]; line of HRV-16
  CC50: > 10000 nM
[5]; line of HRV-25
  CC50: > 10000 nM
[5]; line of HRV-39
  CC50: > 10000 nM
[5]; line of HRV-87
  CC50: > 10000 nM

## C#CC[C@@H](C(=O)N[C@H](/C=C/C(=O)OC1CCCC1)C[C@@H]1CCNC1=O)n1cccc(NC(=O)c2cc(C)on2)c1=O [Compound 40, trans-(2′S,3′″″S,4S)-4-[2′-(3″-{[1′″-(5″″-Methylisoxazol-3″″-yl)methanoyl]amino}-2′″-oxo-2′″H-pyridin-1′″-yl)pent-4″-ynoylamino]-5-(2′″″-oxopyrrolidin-3′″″-yl)pent-2-enoic Acid Cyclopentyl Ester]
[1]; H1-HeLa, HRV-2
  EC50: 52 nM
[1]; H1-HeLa, HRV-23
  EC50: 55 nM
[1]; [13]
  EC50: 115 nM
[1]; [6]
  EC50: 56 nM
[1]; [7]
  EC50: 219 nM
[1]; [14]
  EC50: 6 nM
[1]; [15]
  EC50: 148 nM
[1]; [9]
  EC50: 177 nM
[1]; [16]
  EC50: 60 nM
[1]; [10]
  EC50: 490 nM
[1]; [11]
  EC50: 163 nM
[1]; [17]
  EC50: 123 nM
[1]; [12]
  EC50: 83 nM
[2]; HRV-14
  kinact/KI: 186000 M⁻¹ s⁻¹
[3]
  EC50: 27 nM
[4]; line of HRV-14
  CC50 at 2 days: > 10000 nM
[5]; line of HRV-2
  CC50: > 10000 nM
[5]; line of HRV-3
  CC50: > 10000 nM
[5]; line of HRV-9
  CC50: > 10000 nM
[5]; line of HRV-11
  CC50: > 10000 nM
[5]; line of HRV-13
  CC50: > 10000 nM
[5]; line of HRV-16
  CC50: > 10000 nM
[5]; line of HRV-19
  CC50: > 10000 nM
[5]; line of HRV-23
  CC50: > 10000 nM
[5]; line of HRV-25
  CC50: > 10000 nM
[5]; line of HRV-39
  CC50: > 10000 nM
[5]; line of HRV-78
  CC50: > 10000 nM
[5]; line of HRV-87
  CC50: > 10000 nM
[5]; line of HRV-Hanks
  CC50: > 10000 nM

## Cc1cc(C(=O)Nc2cccn([C@@H](Cc3ccc(F)c(F)c3)C(=O)N[C@H](/C=C/C(=O)OC3CCC3)C[C@@H]3CCNC3=O)c2=O)no1 [Compound 58, trans-(2′S,3″″″S,4S)-4-[3′-(3″,4″-Difluorophenyl)-2′-(3′″-{[1″″-(5′″″-methylisoxazol-3′″″-yl)methanoyl]amino}-2″″-oxo-2″″H-pyridin-1″″-yl)propanoylamino]-5-(2″″″-oxopyrrolidin-3″″″-yl)pent-2-enoic Acid Cyclobutyl Ester]
[1]; H1-HeLa, HRV-1A
  EC50: 14 nM
[1]; H1-HeLa, HRV-2
  EC50: 13 nM
[1]; H1-HeLa, HRV-23
  EC50: 8 nM
[1]; [13]
  EC50: 21 nM
[1]; [6]
  EC50: 5 nM
[1]; [7]
  EC50: 47 nM
[1]; [8]
  EC50: 11 nM
[1]; [14]
  EC50: 5 nM
[1]; [15]
  EC50: 24 nM
[1]; [9]
  EC50: 14 nM
[1]; [16]
  EC50: 17 nM
[1]; [10]
  EC50: 16 nM
[1]; [11]
  EC50: 20 nM
[1]; [17]
  EC50: 14 nM
[2]; HRV-14 3C protease
  kinact/KI: 2.2e+06 M⁻¹ s⁻¹
[3]
  EC50: 3 nM
[4]; HRV-14
  CC50 at 2 days: > 10000 nM
[5]; HRV-1A
  CC50: > 10000 nM
[5]; HRV-2
  CC50: > 10000 nM
[5]; HRV-3
  CC50: > 10000 nM
[5]; HRV-9
  CC50: > 10000 nM
[5]; HRV-10
  CC50: > 10000 nM
[5]; HRV-11
  CC50: > 10000 nM
[5]; HRV-13
  CC50: > 10000 nM
[5]; HRV-16
  CC50: > 10000 nM
[5]; HRV-19
  CC50: > 10000 nM
[5]; HRV-23
  CC50: > 10000 nM
[5]; HRV-25
  CC50: > 10000 nM
[5]; HRV-39
  CC50: > 10000 nM
[5]; HRV-78
  CC50: > 10000 nM
[5]; HRV-Hanks
  CC50: > 10000 nM
